One data set concerns HBsAg. In words: PHH natural infection assay, HBsAg (alphalisa). Format: cell-based, HBV. As to the method:
(§1) Detailed procedures regarding primary human hepatocyte (PHH) HBV natural infection assay are described as below. One tube of frozen PHH (10 million cells) is thawed in 37° C. water bath and then transferred to 20 mL of PHH thawing medium (Sigma, InVitroGRO HT Medium, Cat. S03319) with gently mixing. The cells were then centrifuged at […] for 5 min, the supernatant was discarded and the tube was refilled with 25 mL of PHH plating medium (Sigma, InVitroGRO CP Medium, Cat. S03317). The tube was shaken very gently to re-suspend all cells, and then 50 μL of cells were transferred to each well 384-well collagen I coated plate with appropriate liquid handling equipment, e.g. Integra VIAFLO384 or Agilent Bravo. The cells were then cultured for 24 hours in a cell incubator. For HBV infection, after PHH attachment on the culture plate, the plating medium was removed and replenished with PHH culture medium containing HBV virus. The PHH culture medium was prepared with Dulbecco's Modified Eagle Medium (DMEM)/F12 (1:1 in volume ratio) containing 10% fetal bovine serum (Gibco, Cat. 10099141), 5 ng/mL human epidermal growth factor (Gibco, Cat.PHG0311L), 20 ng/mL dexamethasone (Sigma, Cat.D4902-100 mg), 250 ng/mL human recombinant insulin (Gibco, Cat.41400045) and 100 U/mL penicillin. HBV virus at 200 genome equivalent (GE) per cell with 4% PEG8000 (Sigma, Cat.P1458) containing culture medium were added to the PHH culture medium for infection. The cells were then cultured for 24 hours in cell incubator. Then the cell culture supernatant was removed. The HBV-infected PHH were cultured with sandwich culture method with PHH culture medium containing […] and 0.25 mg/mL matrix gel for 72 hours. The supernatant was then refreshed with PHH culture medium containing different concentrations of testing compounds for two times with 72-hour interval. At the end of treatment, the supernatant was collected for viral markers measurements, including HBsAg, HBeAg, HBV DNA and cytotoxicity. HBsAg and HBeAg were detected using alphalisa method using their specific antibodies. For HBV DNA detection, HBV DNA Quantitative Fluorescence Diagnostic Kit (Sansure Biotech Inc.) was used following the manufacture's protocol. Cytotoxicity was determined using Cell Counting Kit-8 (CCK8, Dojindo Molecular Technologies, Inc.).
(§2) The compounds of the present invention were tested for their capacity to inhibit HBsAg and HBeAg as described herein.

The next data set has as its system HBeAg. In words: PHH natural infection assay, HBeAg (alphalisa). Format: cell-based, HBV. Here is the method: as §1, §2
A general note: Alpha assays give light when donor and acceptor beads are brought close together.

A short description of data set [1]: Cytotoxicity in PHH natural infection assay (Cell Counting Kit-8). The class given is cell-based. The conditions noted are these: HBV-infected primary human hepatocytes, CCK8. Here is the method:
as §1

The mark [2] stands for this setting: Hepatitis B virus, Hepatocyte, read-out: HBsAg IC50, HBV-infected primary human hepatocytes, supernatant, alphalisa.
The mark [3] stands for this setting: Hepatitis B virus, Hepatocyte, read-out: HBeAg IC50, HBV-infected primary human hepatocytes, supernatant, alphalisa.
The mark [4] stands for this setting: read-out: HBsAg IC50, HBV-infected primary human hepatocytes, supernatant, alphalisa.
Setting [5] is: read-out: HBeAg IC50, HBV-infected primary human hepatocytes, supernatant, alphalisa.

For 21 molecules, IC50 and CC50 results are on record in patent US20230286968A1, “ARYLOXAZOLO SPIRAL RING DERIVATIVES FOR THE TREATMENT AND PROPHYLAXIS OF HEPATITIS B VIRUS INFECTION” (Hoffmann-La Roche Inc., priority 2020, published 2023).

Structures are written as SMILES. Read-outs that look alike come from different tables or passages of the source.

What is called IC50 is the concentration needed to halve the response being measured. For orientation: CC50 means the concentration at which the toxic effect on the cells reaches its halfway point. Higher therefore signals lower toxicity to the cells. In the case of `CN1C(C(=O)NC2CC3(C2)CC(c2nc4cc(Cl)ccc4o2)C3)CCS1(=O)=O` (stereo not drawn) [Example 46, N-[6-(5-chloro-1,3-benzoxazol-2-yl)spiro[3.3]heptan-2-yl]-2-methyl-1,1-dioxo-1,2-thiazolidine-3-carboxamide], the values for the concentration for half-maximal inhibition (IC50) with HBsAg (setting [2]) and in the data set with HBeAg (setting [3]) were 3.9 µM and 3.41 µM, respectively. In data set [1], the CC50 at 144 h is above 10 µM.
Turning to `O=C1CCC(CC(=O)NC2CC3(C2)CC(c2nc4cc(Cl)ccc4o2)C3)N1` (stereo not drawn) [Example 37, N-[6-(5-chloro-1,3-benzoxazol-2-yl)spiro[3.3]heptan-2-yl]-2-(5-oxopyrrolidin-2-yl)acetamide], the values for the half-maximal inhibitory concentration (IC50) in the data set with HBsAg (setting [2]) and with HBeAg (setting [3]) were 6 µM and 3.75 µM, respectively. The same molecule gave a CC50 at 144 h in data set [1] above 10 µM.
As for `CN(C(=O)c1ccnc(S(C)(=O)=O)c1)C1CC2(CC(c3nc4cc(Cl)ccc4o3)C2)C1` (stereo not drawn) [Example 92, N-[6-(5-chloro-1,3-benzoxazol-2-yl)spiro[3.3]heptan-2-yl]-N-methyl-2-methylsulfonyl-pyridine-4-carboxamide], the figures for the IC50 with HBsAg (setting [2]) and in the data set with HBeAg (setting [3]) were 3.05 µM and 2.02 µM, respectively. Besides, in data set [1], the CC50 at 144 h is above 10 µM.
Regarding `[H][C@]1(NC(=O)c2ccnc(S(C)(=O)=O)c2)C[C@]2(C1)C[C@]([H])(c1nc3cc(Cl)ccc3o1)C2` (single isomer, unassigned) [Example 87-a, (Ra)—N-[6-(5-chloro-1,3-benzoxazol-2-yl)spiro[3.3]heptan-2-yl]-2-methylsulfonyl-pyridine-4-carboxamide], the IC50 with HBsAg (setting [4]) amounted to 0.2 µM; with HBeAg (setting [5]), 0.22 µM. In data set [1], this molecule displayed a CC50 at 144 h above 10 µM.
In the case of `CC1(C(=O)NC2CC3(C2)CC(c2nc4cc(Cl)ccc4o2)C3)CCS(=O)(=O)C1` (stereo not drawn) [Example 48, N-(6-(5-chlorobenzo[d]oxazol-2-yl)spiro[3.3]heptan-2-yl)-3-methyltetrahydrothiophene-3-carboxamide 1,1-dioxide], the IC50 was 2.62 µM with HBsAg (setting [2]) and 1.1 µM in the data set on HBeAg (setting [3]). Also, the cytotoxic concentration (CC50) at 144 h in data set [1] was above 100 µM.
For the molecule `CN1C(=O)CCC1CC(=O)NC1CC2(C1)CC(c1nc3cc(Cl)ccc3o1)C2` (stereo not drawn) [Example 36, N-[6-(5-chloro-1,3-benzoxazol-2-yl)spiro[3.3]heptan-2-yl]-2-(1-methyl-5-oxo-pyrrolidin-2-yl)acetamide], the results for the half-maximal inhibitory concentration (IC50) in the data set on HBsAg (setting [2]) and with HBeAg (setting [3]) were 4.05 µM and 3.72 µM, respectively. In data set [1], this molecule yielded a 50% cytotoxic concentration (CC50) at 144 h above 10 µM.
Take `CN1CC(CC(=O)NC2CC3(C2)CC(c2nc4cc(Cl)ccc4o2)C3)CC1=O` (stereo not drawn) [Example 35, N-[6-(5-chloro-1,3-benzoxazol-2-yl)spiro[3.3]heptan-2-yl]-2-(1-methyl-5-oxo-pyrrolidin-3-yl)acetamide]: the values for the IC50 in the data set on HBsAg (setting [2]) and in the data set on HBeAg (setting [3]) were 9.93 µM and 7.28 µM, respectively. For the same molecule, in data set [1], the CC50 at 144 h was above 10 µM.
Take `NS(=O)(=O)CCCC(=O)NC1CC2(C1)CC(c1nc3cc(Cl)ccc3o1)C2` (stereo not drawn) [Example 39, N-[6-(5-chloro-1,3-benzoxazol-2-yl)spiro[3.3]heptan-2-yl]-4-sulfamoyl-butanamide]: the figures for the IC50 with HBsAg (setting [2]) and in the data set on HBeAg (setting [3]) were 5.98 µM and 4.8 µM, respectively. In data set [1], this molecule displayed a CC50 at 144 h above 10 µM.
For `CC(C)S(=O)(=O)NC1CC2(C1)CC(c1nc3cc(Cl)ccc3o1)C2` (stereo not drawn) [Example 58, N-[6-(5-chloro-1,3-benzoxazol-2-yl)spiro[3.3]heptan-2-yl]propane-2-sulfonamide], in that order: 6.19 µM, 5.97 µM and above 100 µM.
Take `[H][C@]1(NC(=O)C2CCS(=O)(=O)CC2)C[C@]2(C1)C[C@]([H])(c1nc3cc(Cl)ccc3o1)C2` (single isomer, unassigned) [Example 82a, (Ra)—N-[6-(5-chloro-1,3-benzoxazol-2-yl)spiro[3.3]heptan-2-yl]-1,1-dioxo-thiane-4-carboxamide]: the IC50 in the data set with HBsAg (setting [4]) was 6.57 µM; with HBeAg (setting [5]) it was 5.13 µM. The same molecule gave a CC50 at 144 h in data set [1] above 100 µM.
Turning to `O=C(NC1CCOC1)NC1CC2(C1)CC(c1nc3cc(Cl)ccc3o1)C2` (stereo not drawn) [Example 65, 1-[6-(5-chloro-1,3-benzoxazol-2-yl)spiro[3.3]heptan-2-yl]-3-tetrahydrofuran-3-yl-urea], the IC50 stood at 3.94 µM in the data set on HBsAg (setting [2]) and 3.4 µM with HBeAg (setting [3]). The CC50 at 144 h in data set [1] was above 100 µM.
For the molecule `[H][C@]1(NC(=O)c2ccnc(S(=O)(=O)C3CC3)c2)C[C@@]2(C1)C[C@]([H])(c1nc3cc(Cl)ccc3o1)C2` (single isomer, unassigned) [Example 84b, (Sa)—N-[6-(5-chloro-1,3-benzoxazol-2-yl)spiro[3.3]heptan-2-yl]-2-cyclopropylsulfonyl-pyridine-4-carboxamide], the IC50 was 1.9 µM in the data set with HBsAg (setting [4]) and 1.61 µM with HBeAg (setting [5]). For the same molecule, the cytotoxic concentration (CC50) at 144 h in data set [1] was above 10 µM.
For `[H][C@]1(NC(=O)C2CCS(=O)(=O)CC2)C[C@@]2(C1)C[C@]([H])(c1nc3cc(Cl)ccc3o1)C2` (single isomer, unassigned) [Example 82b, (Sa)—N-[6-(5-chloro-1,3-benzoxazol-2-yl)spiro[3.3]heptan-2-yl]-1,1-dioxo-thiane-4-carboxamide], in that order: 2.04 µM, 1.47 µM and above 100 µM.
Take `CC1(C(=O)NC2CC3(C2)CC(c2nc4cc(Cl)ccc4o2)C3)CCS(=O)(=O)CC1` (stereo not drawn) [Example 54, N-(6-(5-chlorobenzo[d]oxazol-2-yl)spiro[3.3]heptan-2-yl)-4-methyltetrahydro-2H-thiopyran-4-carboxamide 1,1-dioxide]: the IC50 was determined as 1.94 µM with HBsAg (setting [2]) and 1.86 µM in the data set on HBeAg (setting [3]). In data set [1], the half-maximal cytotoxic concentration (CC50) at 144 h is above 100 µM.
Turning to `Cc1csc(-c2cc(C(=O)NC3CC4(C3)CC(c3nc5cc(Cl)ccc5o3)C4)ccn2)n1` (stereo not drawn) [Example 14, N-[6-(5-chloro-1,3-benzoxazol-2-yl)spiro[3.3]heptan-2-yl]-2-(4-methylthiazol-2-yl)pyridine-4-carboxamide], the half-maximal inhibitory concentration (IC50) in the data set on HBsAg (setting [2]) stood at 6.36 µM; in the data set with HBeAg (setting [3]), 4.08 µM. Besides, the cytotoxic concentration (CC50) at 144 h in data set [1] is above 10 µM.
For `O=C(NC1CC2(C1)CC(c1nc3cc(Cl)ccc3o1)C2)C1CCS(=O)(=O)C1` (stereo not drawn) [Example 40, N-[6-(5-chloro-1,3-benzoxazol-2-yl)spiro[3.3]heptan-2-yl]-1,1-dioxo-thiolane-3-carboxamide], in that order: 5.72 µM, 5.09 µM and above 100 µM.
For `CS(=O)(=O)c1cc(C(=O)NC2CC3(C2)CC(c2nc4cc(Cl)ccc4o2)C3)ccn1` (stereo not drawn) [Example 23, N-[6-(5-chloro-1,3-benzoxazol-2-yl)spiro[3.3]heptan-2-yl]-2-methylsulfonyl-pyridine-4-carboxamide], in that order: 0.57 µM, 0.49 µM and 94.1 µM.
As for `NC(=O)c1cc(C(=O)NC2CC3(C2)CC(c2nc4cc(Cl)ccc4o2)C3)ccn1` (stereo not drawn) [Example 101, N4-[6-(5-chloro-1,3-benzoxazol-2-yl)spiro[3.3]heptan-2-yl]pyridine-2,4-dicarboxamide], the concentration for half-maximal inhibition (IC50) with HBsAg (setting [2]) is 0.32 µM; in the data set with HBeAg (setting [3]), 0.22 µM. The molecule further returned a CC50 at 144 h in data set [1] above 100 µM.
On to `O=C(NC1CC2(C1)CC(c1nc3cc(Cl)ccc3o1)C2)C1CCS(=O)(=O)N1` (stereo not drawn) [Example 45, N-[6-(5-chloro-1,3-benzoxazol-2-yl)spiro[3.3]heptan-2-yl]-1,1-dioxo-1,2-thiazolidine-3-carboxamide], for which the concentration for half-maximal inhibition (IC50) in the data set on HBsAg (setting [2]) came to 2.41 µM; in the data set on HBeAg (setting [3]) it was 1.36 µM. The molecule further registered a half-maximal cytotoxic concentration (CC50) at 144 h in data set [1] above 100 µM.
With `N=S(=O)(c1cc(C(=O)NC2CC3(C2)CC(c2nc4cc(Cl)ccc4o2)C3)ccn1)C1CC1` (stereo not drawn) [Example 86, N-[6-(5-chloro-1,3-benzoxazol-2-yl)spiro[3.3]heptan-2-yl]-2-(cyclopropylsulfonimidoyl)pyridine-4-carboxamide], the results for the IC50 with HBsAg (setting [2]) and in the data set on HBeAg (setting [3]) were 0.64 µM and 0.42 µM, respectively. This molecule gave a CC50 at 144 h in data set [1] above 100 µM.
For `O=C(NC1CC2(C1)CC(c1nc3cc(Cl)ccc3o1)C2)C1CCN(C(=O)C2CC2)C1` (stereo not drawn) [Example 74, N-[6-(5-chloro-1,3-benzoxazol-2-yl)spiro[3.3]heptan-2-yl]-1-(cyclopropanecarbonyl)pyrrolidine-3-carboxamide], in that order: 3.2 µM, 2.17 µM and above 10 µM.
